Experimental data reported in patent US5602153A, “Method of using 1-arylheteroarylalkyl substituted-1H-1,2,4-triazole compounds for treatment of a giaucoma disorder” (G.D. Searle & Co., priority 1993, dated 1997).
Where two headings read alike, the source gives them in different places.

Tests used:
[1] = tested on: angiotensin II receptor; settings: cited from earlier work; for angiotensin II antagonist activity: binding experiments, functional assays and in vitro / in vivo tests
[2] = target: smooth muscle angiotensin II receptor; assay: Assay A: Angiotensin II Binding Activity (displacement of 125I-AII, rat uterine membrane preparation); settings: rat uterine membranes, 25 °C, 60 min; read-out: IC50 (50% displacement of total specifically bound 125I-AII)
Protocol: Assay A: Anaiotensin II Binding Activity
Compounds of the invention were tested for ability to bind to the smooth muscle angiotensin II receptor using a rat uterine membrane preparation. Angiotensin II (AII) was purchased from Peninsula Labs. ^125 I-angiotensin II (specific activity of 2200 Ci/mmol) was purchased from Du Pont-New England Nuclear. Other chemicals were obtained from Sigma Chemical Co. This assay was carried out according to the method of Douglas et al [Endocrinology, 106, 120-124 (1980)]. Rat uterine membranes were prepared from fresh tissue. All procedures were carried out at 4° C. Uteri were stripped of fat and homogenized in phosphate-buffered saline at pH 7.4 containing 5 mM EDTA. The homogenate was centrifuged at 1500×g for 20 min., and the supernatant was recentrifuged at 100,000×g for 60 min. The pellet was resuspended in buffer consisting of 2 mM EDTA and 50 mM Tris-HCl (pH 7.5) to a final protein concentration of 4 mg/ml. Assay tubes were charged with 0.25 ml of a solution containing 5 mM MgCl2, 2 mM EDTA, 0.5% bovine serum albumin, 50 mM Tris-HCl, pH 7.5 and ^125 I-AII (approximately 10^5 cpm) in the absence or in the presence of unlabelled ligand. The reaction was initiated by the addition of membrane protein and the mixture was incubated at 25° C. for 60 min. The incubation was terminated with ice-cold 50 mM Tris-HDl (pH 7.5) and the mixture was filtered to separate membrane-bound labelled peptide from the free ligand. The incubation tube and filter were washed with ice-cold buffer. Filters were assayed for radioactivity in a Micromedic gamma counter. Nonspecific binding was defined as binding in the presence of 10 μM of unlabelled AII. Specific binding was calculated as total binding minus nonspecific binding. The receptor binding affinity of an AII antagonist compound was indicated by the concentration (IC50) of the tested AII antagonist which gives 50% displacement of the total specifically bound ^125 I-AII from the high affinity AII receptor. Binding data were analyzed by a nonlinear least-squares curve fitting program.

[3] = target: T1, rabbit aortic rings (Oryctolagus cuniculus, UniProt P34976); assay: Assay B: In Vitro Vascular Smooth Muscle-Response for AII (antagonist activity in rabbit aortic rings); type: cell-based, rabbit (male New Zealand white); settings: antagonist 10^-5 M for 5 min, AII challenge
T1 construct: The thoracic aorta was removed, cleaned of adherent fat and connective tissue; from tissue; host or cells: thoracic aorta rings, endothelium removed, male New Zealand white rabbit
T1 sequence (P34976 1-359): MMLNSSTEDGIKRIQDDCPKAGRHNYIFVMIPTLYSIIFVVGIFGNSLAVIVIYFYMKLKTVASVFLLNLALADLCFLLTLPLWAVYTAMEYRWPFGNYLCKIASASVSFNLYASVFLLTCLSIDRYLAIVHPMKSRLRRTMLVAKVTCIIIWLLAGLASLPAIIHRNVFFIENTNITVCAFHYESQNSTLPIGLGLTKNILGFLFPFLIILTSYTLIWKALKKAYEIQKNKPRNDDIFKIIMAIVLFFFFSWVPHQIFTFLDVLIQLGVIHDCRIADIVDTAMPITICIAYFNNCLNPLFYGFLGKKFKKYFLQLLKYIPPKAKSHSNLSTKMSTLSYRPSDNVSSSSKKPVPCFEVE
Protocol: Assay B: In Vitro Vascular Smooth Muscle-Response for AII The compounds of the invention were tested for antagonist activity in rabbit aortic rings. Male New Zealand white rabbits (2-2.5 kg) were sacrificed using an overdose of pentobarbital and exsanguinated via the carotid arteries. The thoracic aorta was removed, cleaned of adherent fat and connective tissue and then cut into 3-mm ring segments. The endothelium was removed from the rings by gently sliding a rolled-up piece of filter paper into the vessel lumen. The rings were then mounted in a water-jacketed tissue bath, maintained at 37° C., between moveable and fixed ends of a stainless steel wire with the moveable end attached to an FT03 Grass transducer coupled to a Model 7D Grass Polygraph for recording isometric force responses. The bath was filled with 20 ml of oxygenated (95% oxygen/5% carbon dioxide) Krebs solution of the following composition (mM): 130 NaCl, 15 NaHCO3, 15 KCl, 1.2 NaH2 PO4, 1.2 MgSO4, 2.5 CaCl2, and 11.4 glucose. The preparations were equilibrated for one hour before approximately one gram of passive tension was placed on the rings. Angiotensin II concentration-response curves were then recorded (3×10^-10 to 1×10^-5 M). Each concentration of AII was allowed to elicit its maximal contraction, and then AII was washed out repeatedly for 30 minutes before rechallenging with a higher concentration of AII. Aorta rings were exposed to the test antagonist at 10^-5 M for 5 minutes before challenging with AII. Adjacent segments of the same aorta ring were used for all concentration-response curves in the presence or absence of the test antagonist. The effectiveness of the test compound was expressed in terms of pA2 values and were calculated according to H.O. Schild [Br. J. Pharmacol. Chemother., 2, 189-206 (1947)]. The pA2 value is the concentration of the antagonist which increases the EC50 value for AII by a factor of two. Each test antagonist was evaluated in aorta rings from two rabbits.

[4] = tested on: pressor response to AII; assay: Assay C: In Vivo Intragastric Pressor Assay Response for AII Antagonists; set-up: species or system rat (male Sprague-Dawley); settings: 3 mg/kg i.g., rat, AII 30 ng/kg bolus; for inhibition in vivo at 3 mg/kg: po
Protocol: Assay C: In Vivo Intragastric Pressor Assay Response for AII Antagonists of the Invention
Male Sprague-Dawley rats weighing 225-300 grams were anesthetized with methohexital (30 mg/kg, i.p.) and catheters were implanted into the femoral artery and vein. The catheters were tunneled subcutaneously to exit dorsally, posterior to the head and between the scapulae. The catheters were filled with heparin (1000 units/ml of saline). The rats were returned to their cage and allowed regular rat chow and water ad libitum. After full recovery from surgery (3-4 days), rats were placed in Lucite holders and the arterial line was connected to a pressure transducer. Arterial pressure was recorded on a Gould polygraph (mmHg). Angiotensin II was administered as a 30 ng/kg bolus via the venous catheter delivered in a 50 μl volume with a 0.2 ml saline flush. The pressor response in mmHg was measured by the difference from pre-injectionarterial pressure to the maximum pressure achieved. The AII injection was repeated every 10 minutes until three consecutive injections yielded responses within 4 mmHg of each other. These three responses were then averaged and represented the control response to AII. The test compound was suspended in 0.5% methylcellulose in water and was administered by gavage. The volume administered was 2 ml/kg body weight. The standard dose was 3 mg/kg. Angiotensin II bolus injections were given at 30, 45, 60, 75, 120, 150, and 180 minutes after gavage. The pressor response to AII was measured at each time point. The rats were then returned to their cage for future testing. A minimum of 3 days was allowed between tests. Percent inhibition was calculated for each time point following gavage by the following formula: [(Control Response-Response at time point)/Control Response]×100.

[5] = first of two rabbits, read-out: pA2 (first value) (converted)
[6] = second of two rabbits, read-out: pA2 (converted)

Compound | angiotensin II antagonist activity [1] | IC50 [2] [nM] | Kb [3, 5] [nM] | Kb [3, 6] [nM] | Duration (of inhibition of AII pressor response) [4] [min] | inhibition in vivo at 3 mg/kg [4] [%] | residual agonist activity [1]
CCCCc1nc(Cl)c(CC(=O)O)n1Cc1ccccc1[N+](=O)[O-] [2-butyl-4-chloro-1-(2-nitrobenzyl)imidazole-5-acetic acid] | specific competitive angiotensin II antagonist activity | – | – | – | – | – | –
CCCCc1nc(Cl)c(CC(=O)O)n1Cc1ccccc1Cl [2-n-butyl-4-chloro-1-(2-chlorobenzyl)imidazole-5-acetic acid] | specific competitive angiotensin II antagonist activity | – | – | – | – | – | –
CCCCc1nc(C(F)(F)CCC)nn1Cc1ccc(-c2ccccc2-c2nnn[nH]2)nc1 [Example 9, 5-[2-[5-[[3-(1,1-difluorobutyl)-5-butyl-1H-1,2,4-triazol-1-yl)methyl]-2-pyridinyl]phenyl]-1H-tetrazole] | – | 9.4 | 5.5 | 3.89 | 180 | 20 | –
CCCCc1nc(C(F)(F)CCC)n(Cc2ccc(-c3ccccc3-c3nnn[nH]3)nc2)n1 [Example 10, 5-[2-[5-[[3-butyl-5-(1,1-difluorobutyl)-1H-1,2,4-triazol-1-yl)methyl]-2-pyridinyl]phenyl]-1H-tetrazole] | – | 20 | 20.9 | 31.6 | – | 10 | –
CCCCc1nc(CC(C)(C)C)nn1Cc1ccc(-c2ccccc2-c2nnn[nH]2)nc1 [Example 11, 5-[2-[5-[[3-neopentyl-5-butyl-1H-1,2,4-triazol-1-yl)methyl]-2-pyridinyl]phenyl]-1H-tetrazole] | – | 4.4 | – | – | > 180 | 20 | –
CCCCc1nc(CC(C)(C)C)n(Cc2ccc(-c3ccccc3-c3nnn[nH]3)nc2)n1 [Example 12, 5-[2-[5-[(3-butyl-5-neopentyl-1H-1,2,4-triazol-1-yl)methyl]-2-pyridinyl]phenyl]-1H-tetrazole] | – | 43 | – | – | – | 0 | –
CCCCc1nc(C(=O)N(C)C(C)(C)C)nn1Cc1ccc(-c2ccccc2-c2nnn[nH]2)nc1 [Example 17, 5-[2-[5-[[3-(N-methyl-N-tertbutylamido)-5-butyl-1H-1,2,4-triazol-1-yl)methyl]-2-pyridinyl]phenyl]-1H-tetrazole] | – | 12 | 24.5 | 34.7 | > 180 | 20 | –
CCCCc1nc(C(=O)N(C)C(C)(C)C)n(Cc2ccc(-c3ccccc3-c3nnn[nH]3)nc2)n1 [Example 18, 5-[2-[5-[[3-butyl-5-(N-methyl-N-tertbutylamido)-1H-1,2,4-triazol-1-yl)methyl]-2-pyridinyl]phenyl]-1H-tetrazole] | – | 4.1 | 3.72 | 16.6 | > 180 | 30 | –
CCCCc1nc(-c2ccccc2Cl)nn1Cc1ccc(-c2ccccc2-c2nnn[nH]2)nc1 [Example 29, 5-[2-[5-[[3-(2-chlorophenyl)-5-butyl-1H-1,2,4-triazol-1-yl)methyl]-2-pyridinyl]phenyl]-1H-tetrazole] | – | 25 | – | – | > 180 | 25 | –
CCCCc1nc(-c2ccccc2Cl)n(Cc2ccc(-c3ccccc3-c3nnn[nH]3)nc2)n1 [Example 30, 5-[2-[5-[[3-butyl-5-(2-chlorophenyl)-1H-1,2,4-triazol-1-yl)methyl]-2-pyridinyl]phenyl]-1H-tetrazole] | – | 520 | – | – | – | 0 | –
CNCC(=O)N[C@@H](CCCN=C(N)N)C(=O)N[C@H](C(=O)N[C@@H](Cc1ccc(O)cc1)C(=O)N[C@H](C(=O)N[C@@H](Cc1cnc[nH]1)C(=O)N1CCC[C@H]1C(=O)N[C@@H](C)C(=O)O)C(C)C)C(C)C [Saralasin] | – | – | – | – | – | – | significant residual agonist activity
